From PubChem BioAssay AID190 (DTP/NCI, 2004)
Several values for one entry are separate records, joined by “and”; a condition that tells them apart may be missing. Equal values may be shown once. Toxic doses and inconclusive results are not listed. The calls were made as follows: active = survival T/C of 150% or more; inactive = T/C below 125% in these data.

System: AKR/Lw mice, AKR lymphoma ip, median survival T/C
Assay: NCI In Vivo Anticancer Drug Screen. Data for tumor model Lymphoma AKR (Transplanted) (intraperitoneal) in AKR/Lw mice
Details: endpoint: median survival time, higher = longer survival
Description: The antitumor activity of compounds was measured in mice bearing transplantable tumors. Survival or tumor size were measured and the results are expressed as the measurement made in the treated group (T) divided by the measurement made in the vehicle treated control group (C). The tumor model used in this assay is Lymphoma AKR (Transplanted) (intraperitoneal) in AKR/Lw mice

[1] = dose: 5.0 mg/kg/injection, schedule: Q01DX009 (ip), vehicle: saline
[2] = dose: 12.5 mg/kg/injection, schedule: Q04DX003 (ip), vehicle: saline
[3] = dose: 25.0 mg/kg/injection, schedule: Q01DX001 (ip), vehicle: saline
[4] = dose: 25.0 mg/kg/injection, schedule: Q04DX003 (ip), vehicle: saline
[5] = dose: 50.0 mg/kg/injection, schedule: Q01DX001 (ip), vehicle: saline
[6] = dose: 50.0 mg/kg/injection, schedule: Q04DX003 (ip), vehicle: saline
[7] = dose: 100.0 mg/kg/injection, schedule: Q01DX001 (ip), vehicle: saline
[8] = dose: 100.0 mg/kg/injection, schedule: Q01DX009 (ip), vehicle: saline
[9] = dose: 100.0 mg/kg/injection, schedule: Q04DX003 (ip), vehicle: saline
[10] = dose: 200.0 mg/kg/injection, schedule: Q01DX001 (ip), vehicle: saline

Measured: T/C

Nc1ccn(C2OC(CO)C(O)C2O)c(=O)n1 (stereo not drawn)
active: [1] 150 % of control | dose: 5.0 mg/kg/injection, schedule: Q03HX032 (ip), vehicle: saline 150 % of control | dose: 10.0 mg/kg/injection, schedule: Q03HX032 (ip), vehicle: saline 150 % of control | dose: 18.75 mg/kg/injection, schedule: Q06HX004 (ip), vehicle: saline 150 % of control | dose: 18.75 mg/kg/injection, schedule: Q06HX016 (ip), vehicle: saline 170 % of control
inactive: dose: 0.18 mg/kg/injection, schedule: Q01DX009 (ip), vehicle: saline 87 % of control | dose: 0.25 mg/kg/injection, schedule: Q01DX015 (ip), vehicle: saline 86 % of control | dose: 0.37 mg/kg/injection, schedule: Q01DX009 (ip), vehicle: saline 96 % of control | dose: 0.5 mg/kg/injection, schedule: Q01DX015 (ip), vehicle: saline 93 % of control | dose: 0.75 mg/kg/injection, schedule: Q01DX009 (ip), vehicle: saline 100 % of control | dose: 1.0 mg/kg/injection, schedule: Q01DX015 (ip), vehicle: saline 100 % of control | dose: 3.12 mg/kg/injection, schedule: Q04DX003 (ip), vehicle: saline 94 % of control | [2] 94 % of control | dose: 15.0 mg/kg/injection, schedule: Q01DX009 (ip), vehicle: saline with Tween-80 97 % of control | dose: 15.0 mg/kg/injection, schedule: Q04DX003 (ip), vehicle: saline 120 % of control | dose: 18.8 mg/kg/injection, schedule: Q04DX003 (ip), vehicle: saline 87 % of control | dose: 19.0 mg/kg/injection, schedule: Q04DX003 (ip), vehicle: saline 100 % of control | [3] 97 % of control | [4] 100 % of control | dose: 40.0 mg/kg/injection, schedule: Q06HX012 (ip), vehicle: saline 96 % of control | [5] 94 % of control and 100 % of control | [6] 100 % of control | [7] 100 % of control | [8] 87 % of control and 96 % of control | dose: 150.0 mg/kg/injection, schedule: Q03HX016 (ip), vehicle: saline 59 % of control | dose: 400.0 mg/kg/injection, schedule: Q04DX003 (ip), vehicle: saline 110 % of control

O=c1[nH]c(=O)n(C2CC(O)C(CO)O2)cc1F (stereo not drawn)
active: dose: 250.0 mg/kg/injection, schedule: Q04DX003 (ip), vehicle: saline 150 % of control
inactive: dose: 3.1 mg/kg/injection, schedule: Q04DX003 (ip), vehicle: saline 100 % of control | [1] 100 % of control | dose: 6.2 mg/kg/injection, schedule: Q04DX003 (ip), vehicle: saline 92 % of control | dose: 6.25 mg/kg/injection, schedule: Q01DX009 (ip), vehicle: saline 104 % of control | dose: 10.0 mg/kg/injection, schedule: Q01DX009 (ip), vehicle: saline 106 % of control | dose: 11.0 mg/kg/injection, schedule: Q01DX015 (ip), vehicle: saline 86 % of control | dose: 12.5 mg/kg/injection, schedule: Q01DX015 (ip), vehicle: saline 117 % of control | [2] 94 % of control and 102 % of control | dose: 15.0 mg/kg/injection, schedule: Q01DX009 (ip), vehicle: saline 102 % of control and 123 % of control | dose: 16.5 mg/kg/injection, schedule: Q01DX015 (ip), vehicle: saline 86 % of control | dose: 25.0 mg/kg/injection, schedule: Q01DX015 (ip), vehicle: saline 113 % of control | [4] 90 % of control and 97 % of control | dose: 40.0 mg/kg/injection, schedule: Q01DX015 (ip), vehicle: saline 86 % of control | dose: 50.0 mg/kg/injection, schedule: Q01DX015 (ip), vehicle: saline 114 % of control and 121 % of control | dose: 60.0 mg/kg/injection, schedule: Q01DX001 (ip), vehicle: saline 111 % of control | dose: 60.0 mg/kg/injection, schedule: Q01DX009 (ip), vehicle: saline 112 % of control and 117 % of control | dose: 75.0 mg/kg/injection, schedule: Q01DX009 (ip), vehicle: saline 115 % of control | [7] 95 % of control and 97 % of control | [9] 86 % of control and 90 % of control and 104 % of control | dose: 120.0 mg/kg/injection, schedule: Q01DX001 (ip), vehicle: saline 107 % of control | dose: 150.0 mg/kg/injection, schedule: Q01DX001 (ip), vehicle: saline 105 % of control and 110 % of control and 116 % of control | dose: 150.0 mg/kg/injection, schedule: Q04DX003 (ip), vehicle: saline 123 % of control | [10] 104 % of control and 105 % of control and 119 % of control

COc1ccc2cc1Oc1ccc(cc1)C[C@H]1c3cc(c(OC)cc3CCN1C)Oc1c(OC)c(OC)cc3c1[C@H](C2)N(C)CC3
inactive: dose: 6.2 mg/kg/injection, schedule: Q01DX009 (ip), vehicle: Klucel (hydroxypropylcellulose) (HPC) 110 % of control | dose: 7.5 mg/kg/injection, schedule: Q01DX009 (ip), vehicle: saline 90 % of control | dose: 12.5 mg/kg/injection, schedule: Q01DX009 (ip), vehicle: Klucel (hydroxypropylcellulose) (HPC) 107 % of control and 113 % of control | dose: 12.5 mg/kg/injection, schedule: Q01DX009 (ip), vehicle: saline 111 % of control | dose: 25.0 mg/kg/injection, schedule: Q01DX001 (ip), vehicle: Klucel (hydroxypropylcellulose) (HPC) 94 % of control (2×) and 97 % of control | [3] 95 % of control | dose: 25.0 mg/kg/injection, schedule: Q01DX009 (ip), vehicle: Klucel (hydroxypropylcellulose) (HPC) 97 % of control and 100 % of control (2×) | dose: 25.0 mg/kg/injection, schedule: Q01DX009 (ip), vehicle: saline 94 % of control | dose: 25.0 mg/kg/injection, schedule: Q04DX003 (ip), vehicle: Klucel (hydroxypropylcellulose) (HPC) 87 % of control | [4] 88 % of control and 109 % of control | dose: 32.0 mg/kg/injection, schedule: Q04DX003 (ip), vehicle: water 100 % of control | dose: 50.0 mg/kg/injection, schedule: Q01DX001 (ip), vehicle: Klucel (hydroxypropylcellulose) (HPC) 94 % of control and 110 % of control | [5] 95 % of control | dose: 50.0 mg/kg/injection, schedule: Q01DX009 (ip), vehicle: Klucel (hydroxypropylcellulose) (HPC) 94 % of control and 107 % of control | dose: 50.0 mg/kg/injection, schedule: Q01DX009 (ip), vehicle: saline 94 % of control and 116 % of control | dose: 50.0 mg/kg/injection, schedule: Q04DX003 (ip), vehicle: Klucel (hydroxypropylcellulose) (HPC) 87 % of control | [6] 97 % of control and 111 % of control and 114 % of control | dose: 64.0 mg/kg/injection, schedule: Q04DX003 (ip), vehicle: water 96 % of control | dose: 75.0 mg/kg/injection, schedule: Q01DX001 (ip), vehicle: Klucel (hydroxypropylcellulose) (HPC) 94 % of control | dose: 100.0 mg/kg/injection, schedule: Q01DX009 (ip), vehicle: Klucel (hydroxypropylcellulose) (HPC) 100 % of control | [8] 100 % of control and 106 % of control | dose: 100.0 mg/kg/injection, schedule: Q04DX003 (ip), vehicle: Klucel (hydroxypropylcellulose) (HPC) 97 % of control | [9] 98 % of control and 100 % of control and 111 % of control | dose: 128.0 mg/kg/injection, schedule: Q04DX003 (ip), vehicle: water 107 % of control | [10] 87 % of control and 104 % of control and 111 % of control | dose: 200.0 mg/kg/injection, schedule: Q01DX009 (ip), vehicle: saline 88 % of control and 94 % of control | dose: 200.0 mg/kg/injection, schedule: Q04DX003 (ip), vehicle: Klucel (hydroxypropylcellulose) (HPC) 100 % of control | dose: 200.0 mg/kg/injection, schedule: Q04DX003 (ip), vehicle: saline 97 % of control | dose: 256.0 mg/kg/injection, schedule: Q04DX003 (ip), vehicle: water 100 % of control | dose: 400.0 mg/kg/injection, schedule: Q01DX001 (ip), vehicle: saline 93 % of control and 100 % of control (2×)

CO[C@H](C(=O)[C@@H](O)[C@@H](C)O)[C@@H]1Cc2cc3cc(OC4CC(OC5CC(O)C(O)C(C)O5)C(O)C(C)O4)c(C)c(O)c3c(O)c2C(=O)[C@H]1OC1CC(OC2CC(OC3CC(C)(O)C(O)C(C)O3)C(O)C(C)O2)C(O)C(C)O1 (stereo partly drawn)
inactive: dose: 0.12 mg/kg/injection, schedule: Q01DX009 (ip), vehicle: saline 115 % of control | dose: 0.25 mg/kg/injection, schedule: Q01DX009 (ip), vehicle: water 95 % of control | dose: 0.5 mg/kg/injection, schedule: Q01DX009 (ip), vehicle: water 110 % of control
